Measurements reported in patent publication US20230190761A1, “METHYLENE BLUE STABILIZED MRNA COMPOSITIONS” (ModernaTX, Inc., priority 2020, published 2023).
Where “and” joins values, the source holds several entries; their conditions need not be identical. Identical values can stand only once. Entries after “also recorded” stand apart in the source; their conditions may differ.

Legend:
Format in all cases: physicochemical
mRNA [1] = assay: Circular dichroism of mRNA with methylene blue; settings: addition of methylene blue (210 μM, 367 μM)
Description: The effect of methylene blue on the conformational state of mRNA is also apparent from the circular dichroism (CD) spectra shown in FIG. 20. The CD bands correspond to the intrinsic CD of the mRNA itself. […] The stabilizing effect of methylene blue observed on mRNA may be attributed to this binding and conformational stabilization evident from the DSC thermograms (FIGS. 18 and 19).

[2] = system: mRNA within LNP compositions; assay: mRNA integrity by fragmentation analysis after 10 days at 5, 25 or 40° C. with methylene blue; settings: for mRNA stability by fragmentation analysis: 0.1-6 mM methylene blue
Description: (§1) mRNA purity can be determined by reverse phase high-performance liquid chromatography (RP-HPLC) size based separation. This method can be used to assess mRNA integrity by a length-based gradient RP separation and UV detection of RNA at 260 nm. As used herein “main peak” or “main peak purity” refers to the RP-HPLC signal detected from mRNA that corresponds to the full size mRNA molecule loaded within a given LNP formulation. mRNA purity can also be assessed by fragmentation analysis. Fragmentation analysis (FA) is a method by which nucleic acid (e.g., mRNA) fragments can be analyzed by capillary electrophoresis. Fragmentation analysis involves sizing and quantifying nucleic acids (e.g., mRNA), for example by using an intercalating dye coupled with an LED light source. Such analysis may be completed, for example, with a Fragment Analyzer from Advanced Analytical Technologies, Inc.
In view of the surprising and somewhat counter-intuitive finding that methylene blue enhanced stability of mRNA-LNP formulations, additional experimentation was conducted. The stability of mRNA-LNPs in the presence of increasing levels of methylene blue was investigated upon incubation at 5° C., 25° C. or 40° C. for 10 days. […] In addition to chemical stability, a careful examination of the possible impact of methylene blue on the physical state of the LNP was performed using dynamic light scattering (DLS). This technique is exquisitely sensitive to tiny changes in hydrodynamic nanoparticle size, especially with respect to the formation of larger aggregates known to be a common physical degradation mode of many LNPs.

mRNA [3] = assay: DLS of methylene blue-mRNA interaction; settings: methylene blue concentrations in the 10 μM range; data not shown
Description: The images in FIG. 22 show the effect of thionine on mRNA-LNPs. […] The significant protection against fragmentation and adduct formation conferred by the compounds disclosed herein may be based on this effect on nucleic acid conformational state.

[4] = system: lipid nanoparticles (LNP); assay: Permeation of phenothiazinium dyes into LNP and binding to encapsulated mRNA; settings: optical spectroscopic studies, Cryo-EM, DLS, isothermal titration calorimetry
Description: This example describes phenothiazinium dyes which interact with mRNA and their impact on LNP formulations. […] These interpretations were made based on extensive optical spectroscopic studies, Cryo-EM, dynamic light scattering (DLS) and isothermal titration calorimetry studies.

mRNA-LNP formulations = assay: mRNA-LNP stability in differing buffer conditions with or without methylene blue (fragmentation analysis and RP-HPLC); settings: 150 mM NaCl, 2 mM MB
Protocol: This example discusses stabilization effects of methylene blue on mRNA-LNP formulations in varying buffer conditions. To match experiments conducted on lyophilized products, which were reconstituted in saline, and refrigerated/frozen formulations in TRIS-Sucrose, two buffers across the range of pH were tested. Sodium chloride was added to mimic saline, as it can cause methylene blue to crash out of solution.

[5] = system: mRNA encapsulated within LNPs; assay: mRNA-LNP stability with thionine or methylene blue, main peak purity by fragmentation analysis; settings: mRNA-LNP with incremental dye 0.01-1.5 mM, 3 weeks at room temperature and 40° C., relative to no dye
Description: as §1
A study was performed to compare the effects of thionine, a phenothiazinium dye that permeates LNPs, with methylene blue which permeates LNPs to a lesser extent. A series of mRNA-LNP samples were prepared containing incremental levels of each dye as detailed in Table 1. These samples were incubated under two temperature conditions of room temperature and 40 C for 3 weeks prior to analysis.

[6] = system: mRNA within LNP formulations; assay: Screen of molecular dyes on mRNA stability within LNP formulations (RP-HPLC)
Protocol: This example discusses the effects of various dye molecules on mRNA stability within LNP formulations. To evaluate the potential stabilization effects of dyes, LNP compositions were prepared containing 2 mM of one of 25 dyes. After incubation for 4 days at 40° C., main peak mRNA purity was measured by RP-HPLC. Variance within this study was estimated from three independent sample replicates with no dye (Sample IDs D0a, D0b and D0c as shown in Table 4) or with 2 mM methylene blue (Sample IDs D1a, D1b and D1c as shown in Table 4). […] The main peak purity measured in each mRNA-LNP formulation, as well as its difference relative to the no dye controls is shown in Table 4. Positive differences relative to no dye represent improvements in mRNA stability, and negative differences represent worsened mRNA stability.

intrinsic CD bands of mRNA (mRNA [1]): significant perturbation in these bands
mRNA stability by fragmentation analysis ([2]; 5° C.): slight trend in the opposite direction
methylene blue concentration range at which stabilizing effect reached a maximum ([2]; 40° C., fragmentation analysis): 1.5 to 3.0 mM
mRNA stability by fragmentation analysis ([2]; room temperature): protective effect
Adduct (mRNA-LNP formulations; pH 7, TRIS-sucrose buffer): 17.6%
Fragmentation (mRNA-LNP formulations; pH 7, TRIS-sucrose buffer): 16.0%
Main peak (mRNA-LNP formulations; pH 7, TRIS-sucrose buffer): 66.4%
Adduct (mRNA-LNP formulations; pH 7, phosphate buffer): 23.9%
Fragmentation (mRNA-LNP formulations; pH 7, phosphate buffer): 17.1%
Main peak (mRNA-LNP formulations; pH 7, phosphate buffer): 59.1%
Adduct (mRNA-LNP formulations; pH 7.5, TRIS-sucrose buffer): 16.4%
Fragmentation (mRNA-LNP formulations; pH 7.5, TRIS-sucrose buffer): 19.5%
Main peak (mRNA-LNP formulations; pH 7.5, TRIS-sucrose buffer): 64.1%
Adduct (mRNA-LNP formulations; pH 7.5, phosphate buffer): 22.0%
Fragmentation (mRNA-LNP formulations; pH 7.5, phosphate buffer): 18.7%
Main peak (mRNA-LNP formulations; pH 7.5, phosphate buffer): 59.4%
Adduct (mRNA-LNP formulations; pH 8, TRIS-sucrose buffer): 15.9%
Fragmentation (mRNA-LNP formulations; pH 8, TRIS-sucrose buffer): 22.9%
Main peak (mRNA-LNP formulations; pH 8, TRIS-sucrose buffer): 61.2%
Adduct (mRNA-LNP formulations; pH 8, phosphate buffer): 22.7%
Fragmentation (mRNA-LNP formulations; pH 8, phosphate buffer): 25.0%
Main peak (mRNA-LNP formulations; pH 8, phosphate buffer): 52.2%
Adduct (mRNA-LNP formulations; pH 8.5, TRIS-sucrose buffer): 13.3%
Fragmentation (mRNA-LNP formulations; pH 8.5, TRIS-sucrose buffer): 32.5%
Main peak (mRNA-LNP formulations; pH 8.5, TRIS-sucrose buffer): 54.1%
Main Peak Purity after 4 days at 40° C. (%) ([6]; 2 mM dye in mRNA-LNP, RP-HPLC, no value (—) = physically unstable, no reliable chromatographic result, interpreted as destabilizing): 89.62% and 90.27% and 85.96%
Mean (Main Peak Purity after 4 days at 40° C.) ([6]; 2 mM dye, three independent sample replicates): 89 ± 2%
Difference relative to No Dye ([6]; main peak purity, 2 mM dye, 4 days at 40° C., ±4% interpreted as significant): 14%
SMILES: CN(C)c1ccc2nc3ccc(N(C)C)cc3[s+]c2c1 [methylene blue]
mRNA hydrodynamic radii (DLS) (mRNA [3]): measurable decrease in mRNA hydrodynamic radii
permeation of lipid nanoparticles and binding to encapsulated mRNA [4]: does not permeate LNPs to the same extent as certain other phenothiazinium dyes
% main peak purity by fragmentation analysis (mRNA stability) [5]: stabilized it; also recorded: significantly improved mRNA stability relative to the no-dye control
